Test results published in patent publication US9340574B2, “Inhibitors of protein tyrosine phosphatases” (Indiana University Research and Technology Corporation, priority 2012, dated 2016).

Key:
PTPε = PTPε (Homo sapiens (Human), UniProt P23469); test: pNPP hydrolysis enzyme assay, PTPε; format: biochemical
Experimental: (§1) Enzyme kinetic assay. PTP activity was assayed using p-nitrophenyl phosphate (pNPP) as a substrate in 3,3-dimethylglutarate buffer (50 mM 3,3-dimethylglutarate, pH 7.0, 1 mM EDTA, 150 mM NaCl, 2 mM DTT, 0.1 mg/mL BSA) at 25° C. The assays were performed in 96-well plates. Normally, to determine the IC50 values, the reaction was initiated by the addition of enzyme (final concentration at 10 nM) to a reaction mixture (0.2 mL) containing 2 mM (Km for the substrate) pNPP with various concentrations of inhibitors. The reaction rate was measured using a SpectraMax Plus 384 Microplate Spectrophotometer (Molecular Devices). To determine the mode of inhibition, the reactions were initiated by the addition of PTP-MEG2 to the reaction mixtures (0.2 mL) containing various concentrations of pNPP with different concentrations of the inhibitor 7. Data were fitted using SigmaPlot Enzyme Kinetics Module (Systat Software, Inc.).

SHP1 = SHP1 (Homo sapiens (Human), UniProt P29350); test: pNPP hydrolysis enzyme assay, SHP1; format: biochemical
Experimental: as §1

PTP-MEG2 = PTP-MEG2 (Homo sapiens (Human), UniProt P43378); test: pNPP hydrolysis enzyme assay, PTP-MEG2; format: biochemical
Experimental: as §1
PTP-MEG2 Overexpression, and Purification. The expression vector containing residues 277-582 of PTP-MEG2 catalytic domain was provided by Stefan Knapp at the University of Oxford. For protein expression, transformed cells were grown at 37° C. in Luria broth (LB) containing […] ampicillin for 4 h to an OD600 nm @0.6, and then induced for overnight at 18° C. with 0.4 mM IPTG. Cells were harvested by centrifugation (6500 rpm for 15 min at 4° C.), and the cell pellets from 1.5 L LB medium were suspended in 30 mL of ice-cold lysis buffer consisting of 5 mM imidazole, 500 mM NaCl, 20 mM Tris-HCl (pH 7.9), 0.05 mg/mL trypsin inhibitor and 0.1 mM PMSF. The suspensions were passed twice through a French Press at 1200 psi, and the cell lysates were centrifuged at 4° C. for 30 min at 16,000 rpm. The supernatants were mixed with 2 mL Ni-NTA Agarose (His*Bind Resin) (Qiagen) at 4° C. for 1 hour, then transferred mixture to an empty column. The column was washed by 200 mL binding buffer (5 mM imidazole, 500 mM NaCl, 20 mM Tris-HCl (pH 7.9)), followed by 20 mL wash buffer (20 mM imidazole, 500 mM NaCl, 20 mM Tris-HCl (pH 7.9)), and then eluted with 20 mL elution buffer (200 mM imidazole, 500 mM NaCl, 20 mM Tris-HCl (pH 7.9), 5 mM DTT). The elution was dialyzed for 6 h at 4° C. against 1 L buffer A (50 mM NaCl, 20 mM MES (pH6.0), 1 mM EDTA), and then loaded onto a Mono S column equilibrated at 4° C. with buffer A. The column was washed with 10 ml buffer A and then eluted with a 40 mL linear gradient of 0 to 1M NaCl in buffer A. The PTP-MEG2 was eluted at 0.35 M NaCl. The column fractions were analyzed by measuring the absorbance at 280 nm and by carrying out SDS-PAGE analysis. The fractions were combined, dialyzed against 1 L buffer A and concentrated at 4° C. to 8 mg/mL using an Amicon concentrator and then stored at −80° C.

LYP = LYP (Homo sapiens (Human), UniProt Q9Y2R2); test: pNPP hydrolysis enzyme assay, LYP; format: biochemical
Experimental: as §1

PTPβ = PTPβ (Homo sapiens, UniProt P23467); test: pNPP hydrolysis enzyme assay, PTPβ; format: biochemical
Experimental: as §1

FAP1 = FAP1 (Homo sapiens (Human), UniProt Q12923); test: pNPP hydrolysis enzyme assay, FAP1; format: biochemical
Experimental: as §1

[1] = system: diet-induced obese C57BL/6 mice; test: Pyruvate tolerance test in diet-induced obese mice; format: in vivo, mouse; conditions: 5 mg/kg i.p. twice a day
Experimental: C57BL/6J mice were fed a high-fat diet for 10 weeks before Compound 7 or vehicle was injected intraperitoneally twice a day at a dose of 5 mg/kg body weight. FIG. 5A depicts insulin tolerance tests (ITT) performed on Day 7 by injecting intraperitoneally a bolus of 0.75 unit/kg of human regular insulin. […] FIG. 5C depicts glucose tolerance tests (GTT) carried out on Day 9 after a bolus of 1 g/kg glucose was injected intraperitoneally. […] FIG. 5E depicts pyruvate tolerance tests (PTT) performed on Day 12 after an injection of 2 g/kg pyruvate solution. […] At the end of 2-week injections of Compound 7, animals were fasted overnight and stimulated with a bolus of 1 unit of human regular insulin or saline via vena cava. Three minutes later, liver, skeletal muscle, and white adipose tissue (WAT) were collected sequentially for insulin signaling analysis. FIG. 5G depicts the phosphorylation of Tyr1162/1163 in insulin receptor (IR) and Ser473 phosphorylation in Akt kinases and the corresponding proteins in the liver, skeletal muscle, and white adipose tissue (WAT) were analyzed by immunoblots.
To this end, we intraperitoneally injected Compound 7 into diet-induced obese C57BL/6 mice at a dose of 5 mg/kg twice a day. […] After 7 days of injections, we performed insulin tolerance tests to measure insulin sensitivity in vehicle and Compound 7 treated mice.

SHP2 = SHP2 (Homo sapiens (Human), UniProt Q06124); test: pNPP hydrolysis enzyme assay, SHP2; format: biochemical
Experimental: as §1

PTP1B = PTP1B (Homo sapiens (Human), UniProt P18031); test: pNPP hydrolysis enzyme assay, PTP1B; format: biochemical
Experimental: as §1

Sequence of PTP-MEG2 (P43378 277-582): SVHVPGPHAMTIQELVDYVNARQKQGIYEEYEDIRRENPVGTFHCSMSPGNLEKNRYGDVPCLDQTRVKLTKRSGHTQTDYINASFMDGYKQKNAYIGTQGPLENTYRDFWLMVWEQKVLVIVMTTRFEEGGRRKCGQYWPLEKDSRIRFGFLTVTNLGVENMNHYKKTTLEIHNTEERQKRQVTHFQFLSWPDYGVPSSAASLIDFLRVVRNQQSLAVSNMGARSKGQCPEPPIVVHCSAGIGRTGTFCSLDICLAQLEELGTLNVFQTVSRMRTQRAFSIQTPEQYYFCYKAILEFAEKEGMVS
Sequence of PTP1B (P18031 whole entry, species assumed): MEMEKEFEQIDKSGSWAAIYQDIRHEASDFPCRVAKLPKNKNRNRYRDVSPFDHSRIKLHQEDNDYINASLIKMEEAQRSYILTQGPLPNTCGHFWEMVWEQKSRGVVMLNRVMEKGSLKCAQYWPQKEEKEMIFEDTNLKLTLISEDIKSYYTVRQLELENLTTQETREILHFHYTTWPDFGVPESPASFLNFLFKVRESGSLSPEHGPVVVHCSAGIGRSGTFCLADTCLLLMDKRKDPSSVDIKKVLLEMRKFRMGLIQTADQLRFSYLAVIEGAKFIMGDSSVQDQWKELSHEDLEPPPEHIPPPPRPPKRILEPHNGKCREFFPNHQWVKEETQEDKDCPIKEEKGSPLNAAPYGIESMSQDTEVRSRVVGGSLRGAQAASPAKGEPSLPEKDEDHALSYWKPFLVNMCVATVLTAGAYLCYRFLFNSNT
Sequence of LYP (Q9Y2R2 whole entry, species assumed): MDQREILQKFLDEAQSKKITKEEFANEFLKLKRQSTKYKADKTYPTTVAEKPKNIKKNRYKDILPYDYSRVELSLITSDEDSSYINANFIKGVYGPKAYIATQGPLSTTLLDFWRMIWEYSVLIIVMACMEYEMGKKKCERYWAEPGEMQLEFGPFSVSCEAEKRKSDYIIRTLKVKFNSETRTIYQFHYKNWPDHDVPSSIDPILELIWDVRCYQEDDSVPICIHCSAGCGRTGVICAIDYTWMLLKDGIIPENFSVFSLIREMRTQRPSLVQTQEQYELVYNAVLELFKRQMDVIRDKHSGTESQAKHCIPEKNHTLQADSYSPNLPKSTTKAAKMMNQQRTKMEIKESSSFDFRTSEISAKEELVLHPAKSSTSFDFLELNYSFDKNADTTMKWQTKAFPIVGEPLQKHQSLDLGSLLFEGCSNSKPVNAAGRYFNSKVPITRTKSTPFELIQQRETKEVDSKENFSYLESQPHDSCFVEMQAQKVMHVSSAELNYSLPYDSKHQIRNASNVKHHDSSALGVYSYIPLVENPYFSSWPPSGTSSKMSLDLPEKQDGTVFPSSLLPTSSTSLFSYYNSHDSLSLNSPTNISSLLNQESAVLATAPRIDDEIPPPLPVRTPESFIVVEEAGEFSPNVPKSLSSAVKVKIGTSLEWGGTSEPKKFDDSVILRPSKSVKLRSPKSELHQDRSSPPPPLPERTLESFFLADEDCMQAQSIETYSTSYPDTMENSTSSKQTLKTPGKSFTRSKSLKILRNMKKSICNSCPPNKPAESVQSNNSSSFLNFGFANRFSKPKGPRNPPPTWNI
Sequence of PTPε (P23469 20-700): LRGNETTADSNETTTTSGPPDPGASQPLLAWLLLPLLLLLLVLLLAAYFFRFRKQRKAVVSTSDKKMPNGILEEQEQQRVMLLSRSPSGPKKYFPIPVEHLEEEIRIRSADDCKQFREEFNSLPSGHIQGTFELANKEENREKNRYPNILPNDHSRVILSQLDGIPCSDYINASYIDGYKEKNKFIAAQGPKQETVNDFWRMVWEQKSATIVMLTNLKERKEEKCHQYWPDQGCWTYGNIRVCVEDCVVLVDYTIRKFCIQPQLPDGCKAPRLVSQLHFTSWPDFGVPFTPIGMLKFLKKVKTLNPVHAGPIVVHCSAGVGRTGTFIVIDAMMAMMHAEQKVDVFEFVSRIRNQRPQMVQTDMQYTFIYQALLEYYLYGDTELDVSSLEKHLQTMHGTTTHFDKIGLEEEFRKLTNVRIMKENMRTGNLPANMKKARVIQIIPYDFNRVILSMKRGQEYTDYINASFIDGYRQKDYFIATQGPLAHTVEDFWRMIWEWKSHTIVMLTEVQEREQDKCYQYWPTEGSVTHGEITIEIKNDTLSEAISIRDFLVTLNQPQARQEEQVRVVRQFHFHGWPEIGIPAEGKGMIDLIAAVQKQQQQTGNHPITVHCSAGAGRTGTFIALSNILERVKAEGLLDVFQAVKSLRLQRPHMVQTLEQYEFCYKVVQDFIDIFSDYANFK
Sequence of SHP2 (Q06124 whole entry, species assumed): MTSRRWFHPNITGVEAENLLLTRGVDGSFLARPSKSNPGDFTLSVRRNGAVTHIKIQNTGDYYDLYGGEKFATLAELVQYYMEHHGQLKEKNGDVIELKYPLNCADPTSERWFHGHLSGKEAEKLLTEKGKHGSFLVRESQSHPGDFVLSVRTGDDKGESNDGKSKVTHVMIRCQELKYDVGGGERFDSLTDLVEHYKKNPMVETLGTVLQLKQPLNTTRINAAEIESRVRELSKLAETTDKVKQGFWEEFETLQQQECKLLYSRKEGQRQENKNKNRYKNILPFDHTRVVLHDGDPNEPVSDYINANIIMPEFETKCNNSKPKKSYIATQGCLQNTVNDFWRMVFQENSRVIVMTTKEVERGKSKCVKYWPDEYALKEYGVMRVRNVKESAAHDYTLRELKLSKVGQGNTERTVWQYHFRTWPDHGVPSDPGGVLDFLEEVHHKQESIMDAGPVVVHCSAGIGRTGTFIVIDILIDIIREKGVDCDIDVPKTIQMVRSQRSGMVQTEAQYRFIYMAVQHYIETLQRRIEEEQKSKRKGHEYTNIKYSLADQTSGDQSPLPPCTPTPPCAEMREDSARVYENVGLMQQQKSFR
Sequence of SHP1 (P29350 whole entry): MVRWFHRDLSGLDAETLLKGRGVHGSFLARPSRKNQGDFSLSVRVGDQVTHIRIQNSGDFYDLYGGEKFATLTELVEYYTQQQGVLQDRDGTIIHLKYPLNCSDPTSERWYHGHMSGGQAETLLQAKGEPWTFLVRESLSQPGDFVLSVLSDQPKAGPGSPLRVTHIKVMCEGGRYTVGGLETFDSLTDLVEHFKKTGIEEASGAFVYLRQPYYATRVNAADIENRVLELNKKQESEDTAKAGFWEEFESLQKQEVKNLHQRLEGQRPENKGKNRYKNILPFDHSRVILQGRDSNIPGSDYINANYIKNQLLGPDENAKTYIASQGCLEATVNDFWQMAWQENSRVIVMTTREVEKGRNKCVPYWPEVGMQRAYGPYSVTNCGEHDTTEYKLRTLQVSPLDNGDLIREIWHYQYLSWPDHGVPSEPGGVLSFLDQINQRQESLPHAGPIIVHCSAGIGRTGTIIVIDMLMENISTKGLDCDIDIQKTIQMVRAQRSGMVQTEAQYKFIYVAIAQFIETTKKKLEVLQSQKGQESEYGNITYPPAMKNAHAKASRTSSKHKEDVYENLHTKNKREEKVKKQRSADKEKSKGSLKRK

COc1cc(CC(=O)NCC(NC(=O)C(CCCNC(=O)c2cccc(I)c2)NC(=O)C(Cc2ccc(C(F)(F)P(=O)(O)O)cc2)NC(=O)c2ccc(C)c(Br)c2)C(N)=O)ccc1O (centres unmarked) [Compound 7]
IC50 (PTPε): > 10000 nM
IC50 (SHP1): > 10000 nM
improvement in potency / binding affinity for PTP-MEG2 over the preceding lead (PTP-MEG2; Compound 5 vs Compound 3, Compound 7 vs Compound 5): 3.6 fold
mode of inhibition of PTP-MEG2 (PTP-MEG2; kinetic analysis): reversible and competitive inhibitor
Ki (PTP-MEG2; kinetic analysis, Lineweaver-Burk): 34 ± 2 nM
IC50 (PTP-MEG2; pNPP substrate, read-out: IC50 (nM) PTP-MEG2): 75 ± 10 nM
IC50 (LYP): > 10000 nM
IC50 (PTPβ): > 10000 nM
IC50 (FAP1): > 10000 nM
hepatic gluconeogenesis in pyruvate tolerance test ([1]; Day 12): significant suppression of hepatic gluconeogenesis
better pyruvate tolerance (AUC) ([1]; Day 12, vs vehicle): 25%
IC50 (SHP2): > 10000 nM
IC50 (PTP1B; pNPP substrate): 860 nM
selectivity for PTP-MEG2 over PTP1B (PTP1B; ratio of IC50 values): more than 10 fold
